Results as given in patent US11491132B2, “Methods for treating thrombocytopenia” (Enzychem Lifesciences Corporation, priority 2014, dated 2022).

Assays:
C3 = C3 in culture supernatant of HepG2 cells, ELISA; type: cell-based, human; conditions: PLAG 1 to 100 μg/ml or S6I 10 and 100 μg/ml, IL-4 and TNF-α 1 hr, 18 hr at 37° C.
Description: The incubated HepG2 cell lines are treated with PLAG (1˜100 μg/ml), followed by IL-4 and TNF-α, reacted for 1 hour, incubated for 18 hours at 37° C. and the supernatant isolated. Quantitation of the amount of C3 in the cellular culture medium (supernatant) from HepG2 cells is performed by ELISA using a commercially available monoclonal antibody (mAb, R&D Systems) and the manufacture's protocol; the results are presented in FIG. 3. C3 is expressed spontaneously under in vitro culture condition using 10% FCS added to HepG2 cells incubated for 12 hr. The cells are treated with different doses of PLAG from 1 to 100 μg/ml (Panel A, Panel B) or 10 and 100 μg/ml of S6I (Panel C), reacted with IL-4 and TNF-α for 1 hr and then incubated for 18 hr at 37° C. Cellular viability is confirmed using the WST-1 assay (Panel A).

platelets = test: Lipopolysaccharide-induced platelet reduction in mice; type: in vivo; conditions: LPS 1 mg/kg, PLAG 1 mg/kg, 15 hours after PLAG treatment
Description: Mice are injected with 100 mg/kg phenylhydrazine (PHZ), i.p., to induce anemia and reduction of platelets. 5 mg/kg PLAG is administered to the mice orally and blood samples are taken at 3 and 13 days after. In addition, for comparison, normal mice which are not treated with phenylhydrazine are prepared as a normal group, and mice treated with PHZ and olive oil instead of PLAG are prepared as a control group. The blood samples taken from the mice are treated with 0.5 ml EDTA (Minicollect tube, Greiner bio-one, Austria) and concentration of platelet is measured using automated blood sample analyzer BC-6800 (Mindray, Shenzhen, China) by number of platelet per […] (k: 1,000).
The experiment is repeated using Tamoxifen (Tam), an anticancer agent, injected at the amount of 100 mg/kg, or lipopolysaccharide (LPS), an inflammation inducer, at the amount of 1 mg/kg to induce platelet reduction. Platelet concentration is measured 15 hours after PLAG treatment. For comparison, olive oil and PBS are used instead of PLAG as controls, respectively for the Tamoxifen and lipopolysaccharide experiment.

[1] = system: splenic nodules, primitive progenitor cells and megakaryocytes; test: Colony forming units in spleen (CFUs) assay in heavily irradiated mice; type: in vivo; conditions: PLAG 50 mg/kg/d i.p. or p.o.
Description: In order to determine the in vivo effect of PLAG on the recovery of hematopoiesis, a CFUs assay is performed in heavily irradiated mice.

Complement 3 = test: Clinical study: activity of PLAG on Complement 3 in healthy subjects; type: in vivo, human
Description: A clinical study is conducted in Gwandong University MyungJi Hospital Clinical Study Center in Republic of Korea with 27 healthy patients to study immune-modulating effect of PLAG. Volunteers are tested for 30 days in vivo as oral administer (500 mg of PLAG per day) under a legitimate clinical approval. Complement 3 is counted using C3 assay kit. The analysis result is shown in FIG. 7, and change of immunoactivity by the administration of PLAG in healthy subjects is shown in Table 8 (effect of PLAG supplementation on immune function of peripheral blood after 4-wk intervention). As shown in FIG. 7 and Table 8, the majority of those who consume PLAG for a month (twenty-six (26) subjects out of 27 patients) show decreased complement 3 (C3), while the control group, who are treated with soybean oil, show both increase and decrease of C3.

[2] = system: hematopoietic stem cells and megakaryocytes; conditions: reported in WO 99/26640; cited from earlier work
STAT1 = biological target: T1, STAT1 (Homo sapiens, UniProt P42224); test: Dephosphorylation of STAT1 in U937 cell lysate, western blot; type: cell-based; set-up: endogenous in cells; host or cells: U937; conditions: U937 cells; PLAG 0.01 to 10 μg/ml; 15 min after 10 ng IFN-γ
T1 sequence (P42224 1-750): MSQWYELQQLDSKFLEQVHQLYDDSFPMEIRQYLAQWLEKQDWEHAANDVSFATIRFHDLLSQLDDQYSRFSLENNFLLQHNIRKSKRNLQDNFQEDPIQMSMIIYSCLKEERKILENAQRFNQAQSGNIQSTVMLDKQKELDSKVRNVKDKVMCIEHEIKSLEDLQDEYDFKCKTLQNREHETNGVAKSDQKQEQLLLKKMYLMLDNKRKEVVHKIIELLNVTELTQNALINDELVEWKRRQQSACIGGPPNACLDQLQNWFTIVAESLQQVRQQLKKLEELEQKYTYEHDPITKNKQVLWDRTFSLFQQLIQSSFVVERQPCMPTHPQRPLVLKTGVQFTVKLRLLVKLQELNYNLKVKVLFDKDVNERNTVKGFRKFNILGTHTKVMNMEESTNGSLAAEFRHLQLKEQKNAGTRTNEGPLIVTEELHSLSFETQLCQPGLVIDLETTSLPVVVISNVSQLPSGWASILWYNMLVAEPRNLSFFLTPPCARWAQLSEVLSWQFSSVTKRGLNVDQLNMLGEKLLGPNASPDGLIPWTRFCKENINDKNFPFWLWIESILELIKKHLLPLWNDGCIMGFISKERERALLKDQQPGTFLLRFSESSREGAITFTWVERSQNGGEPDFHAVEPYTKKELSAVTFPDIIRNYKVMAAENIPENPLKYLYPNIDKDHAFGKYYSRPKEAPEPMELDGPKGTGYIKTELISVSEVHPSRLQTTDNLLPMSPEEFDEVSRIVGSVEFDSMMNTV
Description: Dephosphorylation of STAT6 is examined using anti-phosphorylated STAT6 in U937, A549, and Jurkat cell lysates treated with PLAG concentration from 0.01 to 10 μg/ml. Phosphorylation of STAT6 is induced by treatment with 10 ng/ml of IL-4. Dephosphorylation of STAT1 is examined in the U937 cell lysate treated with PLAG (0.01 to 10 μg/ml). Phosphorylation of STAT1 is induced by 10 ng of IFN-γ treatment. Dephosphorylation of STAT1 and STAT6 is examined at 15 min after stimulation with IFN-γ and IL-4 respectively, in the PLAG pretreated cells. […] The transcriptional activity of STAT6 is decreased by the dephosphorylation of STAT6. […] No effect of PLAG on STAT1 phosphorylation is observed.

For `CCCCC/C=C\C/C=C\CCCCCCCC(=O)OC(COC(C)=O)COC(=O)CCCCCCCCCCCCCCC` (racemic) [PLAG, 1-palmitoyl-2-linoleoyl-3-acetylglycerol], the “expression of C3 (amount in supernatant, ELISA)” value (C3) was “decreased dose-dependently”, the “Platelet Conc.” value (platelets) was 450.00 k/ul and the “number of splenic nodules and numbers of primitive progenitor cells and megakaryocytes” value [1] was “marked increase”. For the same compound, the “decrease of average concentration of C3 in blood” value (Complement 3; after administration of PLAG, p value <0.001) was “about 10 mg/dL”, the “subjects showing decreased complement 3 (C3)” value (Complement 3; out of 27 patients, PLAG for a month) was 26 subjects and the “growth-stimulating activities of hematopoietic stem cells and megakaryocytes” value [2] was “growth-stimulating activities”. The STAT1 phosphorylation (STAT1) was “No effect”.
